Tests used:
Balb/c mice = assay: FcεRI-mediated passive cutaneous anaphylaxis, Evans blue dye extravasation in ear; type: in vivo; details: 0.965 mg/mouse intraperitoneal, 1 h before DNP-BSA challenge i.v.; ears collected 30 min later; control DMSO; FIG. 2
Method: In particular, mice were injected locally in the ear tissue with anti-dinitrophenol (DNP) IgE (20 ng/mouse) a day before. Mice in the treatment group received 0.965 mg/mouse of calpain inhibitor III via intraperitoneal injection. Control group received diluent dimethyl sulfoxide (DMSO) only. One hour later, animals were injected with 100 μg of DNP-BSA in 200 μl 0.5% Evan blue dye via tail vein injection. Thirty minutes later, ear tissues were collected. Evan blue dyes were extracted and measure at 620 nm.
To examine the role of calpain in FcεRI-mediated passive cutaneous anaphylaxis in mice, dorsal sides of the ears of Balb/c mice were injected intradermally with 20 ng anti-DNP IgE (both left ears) in a 20 μl volume using a 30-gauge needle. After 24 h mice in the treatment group received 0.965 mg/mouse of calpain inhibitor III via intraperitoneal injection. Control group received diluent dimethyl sulfoxide (DMSO) only. […] For quantitation of Evans blue dye extravasation as a measure of anaphylaxis associated vascular hyperpermeability, 8-mm skin specimens were removed from the ears of mice, minced in 2 ml formamide, and incubated at 80° C. for 2 h in water bath to extract the dye. The absorbance of the extracted dye was read at 620 nm.

[1] = system: JNK phosphorylation in mast cells; assay: Western blot of IgE-dependent kinase phosphorylation in mast cell lysates; type: cell-based, mouse; details: BMMC, inhibitor or DMSO 1 hour, then TNP-BSA 10 ng/ml for various times, FIG. 4
Method: In particular, mouse bone marrow-derived mast cells (60 million) were sensitized overnight with 90 ml fresh culture medium and 30 ml TIB141-conditioned medium enriched in IgE directed against trinitrophenyl (TNP). Cells were then washed twice with RPMI 1640 and resuspended in 10% FBS-RPMI 1640 at 1 million cells/ml. Five ml of cells were aliquoted for each treatment. Calpain inhibitor 3 (CI3) or DMSO was added and to the sample and incubated at 37° C. in a 5% CO2 incubator for 1 hour. Then, TNP-BSA (10 ng/ml) was added to stimulate mast cells for various times as indicated. After incubation, cells were transferred to a 50 ml tube, and centrifuged at 500×g for 5 min at 4° C. Supernatants were discarded and cell pellets were kept on ice. Cell pellets were lysed with 30 μl ice-cold RIPA lysis buffer for each condition. Lysates were transferred to 1.5 ml tubes, vortexed for 10 seconds at the highest setting, pipetted 20 times, vortexed for 10 seconds again, and incubated for 20 minutes on ice. Subsequently, lysates were centrifuged at 15,000×g for 10 minutes in a cold room. Supernatants were then transferred to new tubes and used for Western blotting with antibodies to phospho-IκB, total IκB, phospho-p38, total p38, phospho-JNK, total JNK, phospho-ERK, total ERK and actin. […]

## calpain inhibitor III
Balb/c mice
  IgE-dependent passive cutaneous anaphylaxis (Evans blue dye extravasation, absorbance at 620 nm): reduced IgE-dependent passive cutaneous anaphylaxis
[1]
  IgE-dependent JNK phosphorylation in mast cells: reduced IgE-dependent JNK phosphorylation in mast cells

Reference: patent US20090297510A1, “INHIBITION OF CALPAIN REDUCES ALLERGIC INFLAMMATION” (priority 2008, published 2009)
